# Tested on: endometriosis lesions
# Experiment: Ex vivo clinical evaluation of endometriosis lesions (intraperitoneal uterine horn implants) in syngenic mice
# Conditions: estradiol at D-1, implants at D0, nanosuspension (50 mg/mL) i.v. 100 mg/kg/BW every 2 days from D7 to D21, sacrificed at D23, versus control group (Vehicle)
# Description: FIG. 2: Ex vivo clinical evaluation (implant volume (mm^3) and weight (g)) in syngenic mice.
# Example 1: Echographic and Ex Vivo Evaluation of Endometriosis Lesions in Syngenic Mice Treated with Compound 38
# More particularly, 20 syngenic mices were engraved estradiol at D-1. Intraperitoneal Uterine Horsn implant have been implanted in each mouse at DO. A nanosuspension of compound 38 (50 mg/mL) has been intravenously administered in 10 mice (treated group) at a 100 mg/kg/BW dose from D7 to D21 every 2 days.
# Mices have been sacrified at D23 and implants have been removed for ex vivo clinical evaluation.
smiles,measurement,value
"COc1ccc(C#N)cc1/C=C(\C#N)c1c[nH]c2ccc(Br)cc12 [Compound 38, (Z)-3-(2-(5-bromo-1H-indol-3-yl)-2-cyanovinyl)-4-methoxybenzonitrile]",implant volume,lower than those of the control group
same,implant weight,lower than those of the control group

# Source: patent US10624876B2, “Derivatives of indole for the treatment of endometriosis” (BIOKINESIS, priority 2016, dated 2020)
